# In ChEMBL document CHEMBL1137509, “Taxodistines A and B, abietane-type diterpenes from Taxodium distichum” (Bioorg Med Chem Lett, 2007):
# The source made the active and inactive calls. No cut-off for these calls is given here.
# What was measured:
# [1] = target: T1, Tubulin (Homo sapiens) (UniProt P68371+Q9H4B7+P0DPH7+P68366+Q13509+Q71U36+P04350+Q3ZCM7+P07437+P68363+Q9BQE3+Q6PEY2+Q13885+Q9BVA1+Q9BUF5); test: Inhibition of tubulin polymerization at 100 uM after 30 mins; assay type: protein-complex assay
# [2] = test system: P388; test: Cytotoxicity against mouse P388 cells; assay type: functional, cell-based
# [3] = target: T1, Tubulin (Homo sapiens); test: Inhibition of tubulin polymerization at 200 uM after 30 mins; assay type: protein-complex assay
SMILES,inhibition [1] [%],IC50 [2] [µg/mL],Activity [3]
CC(C)C1=CC2=CC(=O)[C@H]3C(C)(C)CCC[C@]3(C)C2=C(O)C1=O,45,–,–
CO[C@@H]1c2cc(C(C)C)c(O)c(O)c2[C@@]2(C)CCCC(C)(C)[C@@H]2[C@H]1O [TAXODISTINE A],–,0.43,inactive
CO[C@@H]1c2cc(C(C)C)c(O)cc2[C@@]2(C)CCCC(C)(C)[C@@H]2[C@H]1O [TAXODISTINE B],90,6.5,–
